Assay results as given in US9956233B2 (priority 2015, dated 2018).

What was measured:
[1] = tested on: primary dopaminergic neurons; assay: MPP+ toxicity in primary mesencephalic neuronal cultures, TH+ neurite length; format: cell-based; conditions: 10 μM, 24 h
Procedure: Primary […] neurons were treated with 10 μM MPP+ alone or co-treated with 100-300 nM mito-Met for 24 h. […] FIG. 7B depicts quantification of neurite length of TH+ neurons.
Primary mesencephalic neuronal cultures were treated for 24 h with 10 μM MPP^+ alone or co-treated with 100 and 300 nM mito-Met, dopaminergic neurotoxicity was assessed by TH immunocytochemistry (FIG. 7A) and quantification of neurite length of TH^+ neurons (FIG. 7B). MPP^+ reduced the neurite length of TH-immunoreactive neurons to almost 45% of the vehicle-treated group, indicating significant dopaminergic neurotoxicity.

[2] = tested on: AMPK; assay: AMPK activation, phosphorylation at T172; format: cell-based; conditions: N27 cells, 10-100 μM, 24 h
Text: In this example we assessed whether mito-Met alters mitochondrial biogenesis in a dopaminergic cell model.

[3] = tested on: Tfam; assay: Tfam protein and mRNA expression; conditions: N27 cells, 10-100 μM, 24 h
[4] = diabetic patients; cited from earlier work
[5] = tested on: complex I in the mitochondrial respiratory chain; conditions: cited from earlier work

C[n+]1ccc(-c2ccccc2)cc1 [MPP^+]
neurite length of TH-immunoreactive neurons, of the vehicle-treated group [1]: ~45%

CN(C)C(=N)N=C(N)N [metformin, Metformin]
phosphorylation of AMPK Thr172 [2]: significantly increased | protein levels of Tfam [3]: upregulated | tolerated daily doses [4]: 2-3 grams | effect on mitochondrial complex-1 activity ([5]; at approximately 0.1 mM): does not affect | inhibition of complex I in the mitochondrial respiratory chain ([5]; in vitro, millimolar concentrations): inhibit
